We go through one compound from ChEMBL document CHEMBL5727118, “Benzoic acid derivatives of bile acid as FXR/TGR5 agonists and methods of use thereof” (2019).

In this test the target is T1, Bile acid receptor (Homo sapiens, UniProt Q96RI1).
T1 sequence (Q96RI1 whole entry): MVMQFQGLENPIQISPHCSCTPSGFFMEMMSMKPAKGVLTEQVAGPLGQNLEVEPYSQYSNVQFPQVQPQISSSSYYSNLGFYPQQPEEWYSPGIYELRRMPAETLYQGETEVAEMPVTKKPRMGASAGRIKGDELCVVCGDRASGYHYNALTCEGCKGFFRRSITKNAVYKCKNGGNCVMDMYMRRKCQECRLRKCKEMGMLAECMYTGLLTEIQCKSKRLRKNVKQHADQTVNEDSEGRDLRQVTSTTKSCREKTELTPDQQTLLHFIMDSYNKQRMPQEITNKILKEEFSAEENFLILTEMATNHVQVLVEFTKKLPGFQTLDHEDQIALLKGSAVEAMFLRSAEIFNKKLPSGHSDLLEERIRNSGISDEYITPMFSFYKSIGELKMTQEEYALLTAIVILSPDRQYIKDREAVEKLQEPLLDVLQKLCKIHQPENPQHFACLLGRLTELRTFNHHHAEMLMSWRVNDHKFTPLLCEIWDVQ
Briefly: FXR Reporter Assay kit purchased from Indigo Bioscience (Catalogue number: IB00601) to determine the potency and efficacy of compound developed by Enanta that can induce FXR activation. The principle application of this reporter assay system is to quantify functional activity of human FXR. The assay utilizes non-human mammalian cells, CHO (Chinese hamster ovary) cells engineered to express human NR1H4 protein (referred to as FXR). Reporter cells also incorporate the cDNA encoding beetle luciferase which catalyzes the substrates and yields photon emission. Luminescence intensity of the reaction is quantified using a plate-reading luminometer, Envision. Reporter Cells include the luciferase reporter gene functionally linked to an FXR responsive promoter. Thus, quantifying changes in luciferase expression in the treated reporter cells provides a sensitive surrogate measure of the changes in FXR activity. […] The assay is according to the manufacturer's instructions. In brief, the assay was performed in white, 96 well plates using final volume of 100 ul containing cells with different doses of compounds. Retrieve Reporter Cells from −80° C. storage. Perform a rapid thaw of the frozen cells by transferring a 10 ml volume of 37° C. cell recovery medium into the tube of frozen cells. Recap the tube of Reporter Cells and immediately place it in a 37° C. water bath for 5-10 minutes. […]. Type of test: cell-based.

`CC[C@H]1[C@@H](O)[C@@H]2[C@H](CC[C@]3(C)[C@@H]([C@H](C)C/C=C/c4ccc(F)cc4C(=O)O)CC[C@@H]23)[C@@]2(C)CC[C@@H](O)C[C@@H]12`: the EC50 (commonly the concentration needed to bring the measured effect to its halfway point) is below 100 nM.
